From article PMC10675526, “Development of a Novel Peptide with Antimicrobial and Mineralising Properties for Caries Management” (Pharmaceutics, 2023) come the findings set out here.

Data set [1] can be described thus: Mineralising effects on enamel blocks after pH cycling (SEM-EDS, Micro-CT, XRD). More on the design: species or system human. To be noted: sound enamel treated twice daily with 160 μM, n = 8 per group, mean ± SD; for Calcium-to-phosphate molar ratio: 8 days pH cycling (16 h pH 4.5, 8 h pH 7.0), SEM-EDS; for Mineral loss / Lesion depth: 8 days pH cycling, Micro-CT; for Mineral loss: MDV control area − MDV demineralised area. Here is the method: A total of 40 enamel blocks were prepared from extracted sound human molars. The pH-cycling procedure (16 h demineralisation at pH 4.5 and 8 h remineralisation at pH 7.0) was performed on enamel blocks for 8 days, using solutions that contained calcium and phosphate. The enamel blocks from the same tooth were treated twice daily with 160 μM GAPI (GAPI Group), 160 μM GA (GA Group), 160 μM PI (PI Group) and sterile deionised water (Water Group). The structure of the enamel surface was examined using SEM (n = 8 per group). The elemental analysis of enamel surface was conducted using affiliated energy-dispersive X-ray spectroscopy (EDS). The calcium-to-phosphorus molar ratio was calculated.
The mineral loss and lesion depth on the enamel blocks were assessed using microcomputed tomography (Micro-CT) (1172, SkyScan, Antwerp, Belgium) (n = 8 per group). The parameters of Micro-CT were 80 kV voltage and 100 μA current with a voxel size of 12 μm^3. The image was reconstructed with NRecon software 1.7.4.6 (SkyScan, Antwerp, Belgium) and analysed using CTAn 1.20.3.0 (SkyScan, Antwerp, Belgium) to determine the lesion depth and mineral density values (MDVs, gHApcm^−3). The mineral loss = MDV of the control area − MDV of the demineralised area.
The diffraction patterns of the enamel blocks were evaluated using X-ray diffraction analysis (XRD) (Rigaku SmartLab 9 kW, […]) (n = 2 per group).

Data set [2] can be described thus: Stability in human saliva (HPLC). The data set is classed as in vitro ADME. To be noted: 37 °C. On the procedure: The stability of peptides in human saliva (collected from six individual healthy volunteers; three males and three females; minimum age, 29; and maximum age, 36) was investigated by testing the remaining peptide concentration via HPLC system (Waters Pacific Pte Ltd., Singapore). The test was processed following a previous experimental protocol. After centrifuging the saliva and collecting the supernatant, GAPI was added to the sample and incubated at 37 °C for 60 min. A 1 mL sample was taken and analysed using HPLC system.

Data set [3] has as its system S. mutans in three-species biofilm. Put plainly: Growth kinetics of multiple-species biofilm, PMA-qPCR. The data set is classed as cell-based, Streptococcus mutans. Here is the method: A multiple-species cariogenic biofilm consisting of S. mutans, L. casei and C. albicans was cultured following a previous protocol. The architecture of the multiple-species biofilm with or without GAPI treatment was assessed using scanning electron microscopy (SEM) and confocal laser scanning microscopy (CLSM). Propidium iodide and […] (DAPI), which highlight bacterial cells, and Concanavalin A (ConA), which labels C. albicans, were used to stain the multiple-species biofilm. The growth kinetics of the multiple-species biofilm were analysed using propidium monoazide–quantitative polymerase chain reaction (PMA-qPCR) (Supplementary Material S1).
(Real-time PCR tracks product formation cycle by cycle.)

The structures appear in SMILES notation. Bridge positions count the residues as written; N and C are the ends. Peptide text beside a SMILES is read from it. * marks the point of attachment. Galloyl = O=C(c1cc(O)c(O)c(O)c1)*

For `O=C(O)c1cc(O)c(O)c(O)c1` [GA, gallic acid], in data set [1], the Calcium-to-phosphate molar ratio worked out at 1.82 ± 0.08, the Mineral loss is listed as 0.88 ± 0.24 gHApcm^−3 and the Lesion depth was determined as 62 ± 12 µm.
Consider `CC(C)[C@@H]1NC(=O)[C@H](CCCN=C(N)N)NC(=O)[C@H](Cc2ccccc2)NC(=O)[C@@H](NC(=O)[C@H](Cc2c[nH]c3ccccc23)NC(=O)[C@H](CCCN=C(N)N)NC(=O)[C@H](CCCN=C(N)N)NC(=O)c2cc(O)c(O)c(O)c2)CSSC[C@@H](C(=O)N[C@@H](CCCN=C(N)N)C(=O)O)NC(=O)[C@H](CCCCN)NC(=O)[C@H](CCCN=C(N)N)NC(=O)[C@H](Cc2ccc(O)cc2)NC(=O)[C@@H]2CSSC[C@H](NC1=O)C(=O)N[C@@H](Cc1ccc(O)cc1)C(=O)N[C@@H](CCCN=C(N)N)C(=O)NCC(=O)N[C@@H](Cc1ccccc1)C(=O)N2` [GAPI, Gallic-Acid-Polyphemusin-I] (Galloyl-RRWCFRVCYRGFCYRKCR-OH; disulfide 4-17, 8-13), for which the “time stable in saliva” value in data set [2] is on record as “at least 60 min”.
As for `CC(C)[C@@H]1NC(=O)[C@H](CCCNC(=N)N)NC(=O)[C@H](Cc2ccccc2)NC(=O)[C@@H](NC(=O)[C@H](Cc2c[nH]c3ccccc23)NC(=O)[C@H](CCCNC(=N)N)NC(=O)[C@H](CCCNC(=N)N)NC(=O)c2cc(O)c(O)c(O)c2)CSSC[C@@H](C(=O)N[C@@H](CCCNC(=N)N)C(=O)O)NC(=O)[C@H](CCCCN)NC(=O)[C@H](CCCNC(=N)N)NC(=O)[C@H](Cc2ccc(O)cc2)NC(=O)[C@@H]2CSSC[C@H](NC1=O)C(=O)N[C@@H](Cc1ccc(O)cc1)C(=O)N[C@@H](CCCNC(=N)N)C(=O)NCC(=O)N[C@@H](Cc1ccccc1)C(=O)N2` [GAPI, Gallic-Acid-Polyphemusin-I] (Galloyl-RRWCFRVCYRGFCYRKCR-OH; disulfide 4-17, 8-13; C-terminus assumed), in data set [1], the Calcium-to-phosphate molar ratio was determined as 1.81 ± 0.05, the Mineral loss was 0.89 ± 0.20 gHApcm^−3 and the Lesion depth worked out at 64 ± 7 µm. Moreover, the “reduction of S. mutans in biofilm versus untreated” value in data set [3] is on record as “more than 10 fold”.
As to `CC(C)[C@@H]1NC(=O)[C@H](CCCNC(=N)N)NC(=O)[C@H](Cc2ccccc2)NC(=O)[C@@H](NC(=O)[C@H](Cc2c[nH]c3ccccc23)NC(=O)[C@H](CCCNC(=N)N)NC(=O)[C@@H](N)CCCNC(=N)N)CSSC[C@@H](C(=O)N[C@@H](CCCNC(=N)N)C(=O)O)NC(=O)[C@H](CCCCN)NC(=O)[C@H](CCCNC(=N)N)NC(=O)[C@H](Cc2ccc(O)cc2)NC(=O)[C@@H]2CSSC[C@H](NC1=O)C(=O)N[C@@H](Cc1ccc(O)cc1)C(=O)N[C@@H](CCCNC(=N)N)C(=O)NCC(=O)N[C@@H](Cc1ccccc1)C(=O)N2` [PI, Polyphemusin I] (H-RRWCFRVCYRGFCYRKCR-OH; disulfide 4-17, 8-13; N-terminus and C-terminus assumed), in data set [1], the Calcium-to-phosphate molar ratio was found to be 1.70 ± 0.06, the Mineral loss came out at 1.32 ± 0.26 gHApcm^−3 and the Lesion depth is 96 ± 9 µm.
